Experimental data as given in paper doi:10.1101/2023.03.24.534094v2 (biorxiv, 2023).
Read-outs that look alike come from different tables or passages of the source.

Tests used:
Assay in all cases: biochemical
OSR1 = OSR1 (Homo sapiens, UniProt O95747)
NDR2 = NDR2 (Homo sapiens, UniProt Q9Y2H1)
ABL1 = ABL1 (Homo sapiens, UniProt P00519)
NEK1 = target: T1, NEK1 (Homo sapiens, UniProt Q96PY6)
T1 sequence (Q96PY6 1-1258): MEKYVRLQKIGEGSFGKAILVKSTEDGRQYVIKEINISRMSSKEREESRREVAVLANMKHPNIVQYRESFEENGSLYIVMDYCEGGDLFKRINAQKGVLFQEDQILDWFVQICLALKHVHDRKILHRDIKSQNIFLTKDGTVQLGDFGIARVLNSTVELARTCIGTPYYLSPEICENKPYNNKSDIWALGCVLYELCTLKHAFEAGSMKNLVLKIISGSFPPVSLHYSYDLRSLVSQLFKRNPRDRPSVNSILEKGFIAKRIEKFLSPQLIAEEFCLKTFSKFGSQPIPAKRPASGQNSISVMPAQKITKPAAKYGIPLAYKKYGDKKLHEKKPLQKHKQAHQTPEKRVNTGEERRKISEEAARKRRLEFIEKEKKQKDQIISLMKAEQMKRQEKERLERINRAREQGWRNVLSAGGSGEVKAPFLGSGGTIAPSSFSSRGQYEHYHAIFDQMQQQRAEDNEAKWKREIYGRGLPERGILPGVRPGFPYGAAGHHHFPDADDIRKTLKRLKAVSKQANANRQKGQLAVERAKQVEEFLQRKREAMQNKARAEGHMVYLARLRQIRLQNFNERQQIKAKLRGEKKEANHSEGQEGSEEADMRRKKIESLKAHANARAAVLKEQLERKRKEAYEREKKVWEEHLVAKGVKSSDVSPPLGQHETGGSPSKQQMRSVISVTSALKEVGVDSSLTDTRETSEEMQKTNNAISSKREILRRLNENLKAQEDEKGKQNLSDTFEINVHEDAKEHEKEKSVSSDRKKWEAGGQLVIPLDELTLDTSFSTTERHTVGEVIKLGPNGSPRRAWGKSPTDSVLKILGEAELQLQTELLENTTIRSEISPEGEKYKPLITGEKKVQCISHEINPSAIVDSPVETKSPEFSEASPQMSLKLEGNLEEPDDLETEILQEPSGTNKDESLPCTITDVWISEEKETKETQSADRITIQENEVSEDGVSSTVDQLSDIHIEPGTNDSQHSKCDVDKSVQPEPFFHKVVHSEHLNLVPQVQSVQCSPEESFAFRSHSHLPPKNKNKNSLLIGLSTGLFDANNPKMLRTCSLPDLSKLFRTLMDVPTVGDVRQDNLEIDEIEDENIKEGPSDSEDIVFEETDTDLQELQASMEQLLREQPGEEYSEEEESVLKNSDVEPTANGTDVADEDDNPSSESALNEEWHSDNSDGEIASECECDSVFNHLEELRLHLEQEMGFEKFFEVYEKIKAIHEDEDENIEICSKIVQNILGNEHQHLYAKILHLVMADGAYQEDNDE

EphB3 = target: T2, EphB3 (Homo sapiens, UniProt P54753)
T2 sequence (P54753 1-998): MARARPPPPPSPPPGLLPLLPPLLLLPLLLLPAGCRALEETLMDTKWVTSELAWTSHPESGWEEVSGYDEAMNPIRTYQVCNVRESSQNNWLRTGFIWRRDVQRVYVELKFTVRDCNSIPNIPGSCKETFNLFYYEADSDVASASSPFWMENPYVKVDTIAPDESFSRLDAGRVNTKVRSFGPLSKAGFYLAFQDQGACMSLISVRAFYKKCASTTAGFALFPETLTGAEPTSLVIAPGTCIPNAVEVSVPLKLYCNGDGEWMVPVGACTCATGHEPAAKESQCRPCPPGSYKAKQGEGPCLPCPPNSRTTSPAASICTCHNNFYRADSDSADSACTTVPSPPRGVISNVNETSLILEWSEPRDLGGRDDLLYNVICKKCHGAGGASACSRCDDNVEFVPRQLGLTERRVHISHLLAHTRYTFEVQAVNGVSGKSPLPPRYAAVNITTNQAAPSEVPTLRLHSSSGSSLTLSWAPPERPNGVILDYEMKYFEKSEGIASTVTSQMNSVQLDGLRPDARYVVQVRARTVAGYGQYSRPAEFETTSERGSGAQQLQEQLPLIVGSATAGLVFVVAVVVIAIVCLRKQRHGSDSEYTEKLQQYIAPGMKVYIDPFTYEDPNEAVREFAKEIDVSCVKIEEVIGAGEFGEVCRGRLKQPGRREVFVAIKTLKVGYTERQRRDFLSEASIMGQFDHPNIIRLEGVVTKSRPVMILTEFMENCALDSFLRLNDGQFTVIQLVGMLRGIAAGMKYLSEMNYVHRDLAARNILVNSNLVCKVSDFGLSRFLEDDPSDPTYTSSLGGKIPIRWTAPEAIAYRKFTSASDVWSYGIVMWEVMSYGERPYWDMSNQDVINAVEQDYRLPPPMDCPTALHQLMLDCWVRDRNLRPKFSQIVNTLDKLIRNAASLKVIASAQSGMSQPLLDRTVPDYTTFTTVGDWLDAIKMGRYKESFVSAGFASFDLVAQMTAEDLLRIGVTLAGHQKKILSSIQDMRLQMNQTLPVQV

MELK = MELK (Homo sapiens, UniProt Q14680)
MELK, sequence (Q14680 whole entry): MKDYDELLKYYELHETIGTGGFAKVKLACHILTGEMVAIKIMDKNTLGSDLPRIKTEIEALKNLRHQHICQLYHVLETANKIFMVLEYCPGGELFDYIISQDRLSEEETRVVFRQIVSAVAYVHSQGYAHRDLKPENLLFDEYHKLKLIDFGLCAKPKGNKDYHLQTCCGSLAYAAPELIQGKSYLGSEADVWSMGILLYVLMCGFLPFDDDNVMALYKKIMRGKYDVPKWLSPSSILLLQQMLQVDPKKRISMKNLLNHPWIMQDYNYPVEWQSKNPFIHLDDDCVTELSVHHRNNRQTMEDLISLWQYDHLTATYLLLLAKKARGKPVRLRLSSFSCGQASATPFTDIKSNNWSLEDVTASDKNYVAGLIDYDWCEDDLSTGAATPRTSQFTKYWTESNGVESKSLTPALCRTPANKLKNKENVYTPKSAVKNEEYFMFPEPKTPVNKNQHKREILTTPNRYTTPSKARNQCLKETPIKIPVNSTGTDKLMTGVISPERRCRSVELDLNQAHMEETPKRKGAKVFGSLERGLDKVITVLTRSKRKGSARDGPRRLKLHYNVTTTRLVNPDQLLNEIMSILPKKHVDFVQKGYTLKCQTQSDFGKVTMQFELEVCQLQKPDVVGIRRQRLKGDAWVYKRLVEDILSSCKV

CDKL1 = CDKL1 (Homo sapiens, UniProt Q00532)
CDKL1, sequence (Q00532 whole entry): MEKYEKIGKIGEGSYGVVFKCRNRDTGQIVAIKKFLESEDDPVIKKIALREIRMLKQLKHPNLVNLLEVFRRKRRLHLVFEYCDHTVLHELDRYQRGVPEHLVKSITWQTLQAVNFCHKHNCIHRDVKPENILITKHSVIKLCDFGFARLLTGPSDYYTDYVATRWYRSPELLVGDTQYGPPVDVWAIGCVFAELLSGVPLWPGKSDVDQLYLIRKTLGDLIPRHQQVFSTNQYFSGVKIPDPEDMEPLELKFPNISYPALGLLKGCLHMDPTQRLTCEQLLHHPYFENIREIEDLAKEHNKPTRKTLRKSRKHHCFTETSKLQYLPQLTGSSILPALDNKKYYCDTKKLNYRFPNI

TAF1 = TAF1 (Homo sapiens, UniProt P21675)
TAF1, sequence (P21675 whole entry): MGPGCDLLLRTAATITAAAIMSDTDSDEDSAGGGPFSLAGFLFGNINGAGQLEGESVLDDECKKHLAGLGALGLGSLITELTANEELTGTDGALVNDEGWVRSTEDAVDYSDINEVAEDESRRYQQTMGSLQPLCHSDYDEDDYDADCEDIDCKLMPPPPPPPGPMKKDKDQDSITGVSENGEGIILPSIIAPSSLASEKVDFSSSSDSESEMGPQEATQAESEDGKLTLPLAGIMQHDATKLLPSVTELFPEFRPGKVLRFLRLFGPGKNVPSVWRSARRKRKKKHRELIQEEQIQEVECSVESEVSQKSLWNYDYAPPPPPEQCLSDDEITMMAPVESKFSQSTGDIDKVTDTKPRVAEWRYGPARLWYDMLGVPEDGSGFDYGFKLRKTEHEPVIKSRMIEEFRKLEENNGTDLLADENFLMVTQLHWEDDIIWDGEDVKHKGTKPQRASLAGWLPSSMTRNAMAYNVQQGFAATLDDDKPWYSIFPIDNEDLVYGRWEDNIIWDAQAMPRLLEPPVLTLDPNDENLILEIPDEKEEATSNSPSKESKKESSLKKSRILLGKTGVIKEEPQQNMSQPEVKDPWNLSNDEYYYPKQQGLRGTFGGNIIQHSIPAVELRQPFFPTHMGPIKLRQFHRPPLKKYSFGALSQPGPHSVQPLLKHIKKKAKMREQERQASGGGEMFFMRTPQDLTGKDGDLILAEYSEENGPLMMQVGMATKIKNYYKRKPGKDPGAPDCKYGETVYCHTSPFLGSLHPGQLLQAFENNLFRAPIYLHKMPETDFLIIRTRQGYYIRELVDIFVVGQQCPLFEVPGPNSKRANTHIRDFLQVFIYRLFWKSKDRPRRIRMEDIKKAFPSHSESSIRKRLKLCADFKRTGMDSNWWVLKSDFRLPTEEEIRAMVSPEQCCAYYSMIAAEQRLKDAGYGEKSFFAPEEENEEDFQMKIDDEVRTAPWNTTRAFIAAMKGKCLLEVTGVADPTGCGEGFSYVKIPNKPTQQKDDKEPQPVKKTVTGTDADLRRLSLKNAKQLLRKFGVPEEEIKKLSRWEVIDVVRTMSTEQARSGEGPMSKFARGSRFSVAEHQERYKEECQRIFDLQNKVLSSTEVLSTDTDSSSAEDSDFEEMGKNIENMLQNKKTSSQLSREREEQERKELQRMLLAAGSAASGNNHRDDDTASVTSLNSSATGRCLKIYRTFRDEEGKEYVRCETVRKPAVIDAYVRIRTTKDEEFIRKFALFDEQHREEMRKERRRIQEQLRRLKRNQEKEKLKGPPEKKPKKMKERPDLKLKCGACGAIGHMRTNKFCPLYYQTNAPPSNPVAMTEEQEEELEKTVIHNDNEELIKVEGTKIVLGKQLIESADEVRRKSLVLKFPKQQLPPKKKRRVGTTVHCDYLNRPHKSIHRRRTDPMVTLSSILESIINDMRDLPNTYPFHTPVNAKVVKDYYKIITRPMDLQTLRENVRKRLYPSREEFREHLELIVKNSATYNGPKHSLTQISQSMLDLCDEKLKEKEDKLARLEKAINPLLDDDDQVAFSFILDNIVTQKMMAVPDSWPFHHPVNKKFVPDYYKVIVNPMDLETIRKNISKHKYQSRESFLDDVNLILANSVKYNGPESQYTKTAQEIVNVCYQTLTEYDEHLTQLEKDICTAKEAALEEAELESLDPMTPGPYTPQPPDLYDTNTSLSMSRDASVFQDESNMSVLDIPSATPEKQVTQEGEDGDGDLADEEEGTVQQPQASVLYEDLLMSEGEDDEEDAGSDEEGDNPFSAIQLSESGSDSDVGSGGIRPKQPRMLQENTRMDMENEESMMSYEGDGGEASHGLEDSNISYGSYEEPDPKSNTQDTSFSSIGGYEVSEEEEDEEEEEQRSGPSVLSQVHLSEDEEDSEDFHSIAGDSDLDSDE

NDR2, sequence (Q9Y2H1 whole entry): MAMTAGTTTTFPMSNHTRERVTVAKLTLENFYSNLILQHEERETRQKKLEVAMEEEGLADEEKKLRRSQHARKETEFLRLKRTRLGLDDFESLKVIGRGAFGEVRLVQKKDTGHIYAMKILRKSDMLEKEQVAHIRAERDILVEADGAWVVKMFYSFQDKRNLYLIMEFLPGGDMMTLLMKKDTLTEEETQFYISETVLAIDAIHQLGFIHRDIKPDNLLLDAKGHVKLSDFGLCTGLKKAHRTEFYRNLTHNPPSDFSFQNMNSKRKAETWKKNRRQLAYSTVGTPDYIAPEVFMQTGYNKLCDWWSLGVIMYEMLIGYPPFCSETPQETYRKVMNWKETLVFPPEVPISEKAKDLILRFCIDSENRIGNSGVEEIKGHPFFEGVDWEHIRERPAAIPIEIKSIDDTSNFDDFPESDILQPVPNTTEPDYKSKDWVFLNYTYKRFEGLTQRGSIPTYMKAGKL
OSR1, sequence (O95747 whole entry): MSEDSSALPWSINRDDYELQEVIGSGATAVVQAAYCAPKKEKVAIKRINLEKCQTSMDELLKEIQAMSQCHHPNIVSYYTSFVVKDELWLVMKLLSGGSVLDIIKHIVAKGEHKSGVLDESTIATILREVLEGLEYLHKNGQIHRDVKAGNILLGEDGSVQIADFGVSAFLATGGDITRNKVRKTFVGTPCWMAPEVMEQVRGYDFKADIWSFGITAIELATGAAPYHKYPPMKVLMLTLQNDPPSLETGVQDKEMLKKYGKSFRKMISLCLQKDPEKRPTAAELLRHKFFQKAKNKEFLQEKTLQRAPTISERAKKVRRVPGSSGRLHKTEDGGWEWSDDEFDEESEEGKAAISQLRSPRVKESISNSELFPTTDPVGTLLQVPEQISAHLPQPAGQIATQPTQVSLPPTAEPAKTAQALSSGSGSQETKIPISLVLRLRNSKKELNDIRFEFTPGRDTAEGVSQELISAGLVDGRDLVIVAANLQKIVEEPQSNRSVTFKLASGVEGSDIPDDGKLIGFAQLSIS
ABL1, sequence (P00519 whole entry): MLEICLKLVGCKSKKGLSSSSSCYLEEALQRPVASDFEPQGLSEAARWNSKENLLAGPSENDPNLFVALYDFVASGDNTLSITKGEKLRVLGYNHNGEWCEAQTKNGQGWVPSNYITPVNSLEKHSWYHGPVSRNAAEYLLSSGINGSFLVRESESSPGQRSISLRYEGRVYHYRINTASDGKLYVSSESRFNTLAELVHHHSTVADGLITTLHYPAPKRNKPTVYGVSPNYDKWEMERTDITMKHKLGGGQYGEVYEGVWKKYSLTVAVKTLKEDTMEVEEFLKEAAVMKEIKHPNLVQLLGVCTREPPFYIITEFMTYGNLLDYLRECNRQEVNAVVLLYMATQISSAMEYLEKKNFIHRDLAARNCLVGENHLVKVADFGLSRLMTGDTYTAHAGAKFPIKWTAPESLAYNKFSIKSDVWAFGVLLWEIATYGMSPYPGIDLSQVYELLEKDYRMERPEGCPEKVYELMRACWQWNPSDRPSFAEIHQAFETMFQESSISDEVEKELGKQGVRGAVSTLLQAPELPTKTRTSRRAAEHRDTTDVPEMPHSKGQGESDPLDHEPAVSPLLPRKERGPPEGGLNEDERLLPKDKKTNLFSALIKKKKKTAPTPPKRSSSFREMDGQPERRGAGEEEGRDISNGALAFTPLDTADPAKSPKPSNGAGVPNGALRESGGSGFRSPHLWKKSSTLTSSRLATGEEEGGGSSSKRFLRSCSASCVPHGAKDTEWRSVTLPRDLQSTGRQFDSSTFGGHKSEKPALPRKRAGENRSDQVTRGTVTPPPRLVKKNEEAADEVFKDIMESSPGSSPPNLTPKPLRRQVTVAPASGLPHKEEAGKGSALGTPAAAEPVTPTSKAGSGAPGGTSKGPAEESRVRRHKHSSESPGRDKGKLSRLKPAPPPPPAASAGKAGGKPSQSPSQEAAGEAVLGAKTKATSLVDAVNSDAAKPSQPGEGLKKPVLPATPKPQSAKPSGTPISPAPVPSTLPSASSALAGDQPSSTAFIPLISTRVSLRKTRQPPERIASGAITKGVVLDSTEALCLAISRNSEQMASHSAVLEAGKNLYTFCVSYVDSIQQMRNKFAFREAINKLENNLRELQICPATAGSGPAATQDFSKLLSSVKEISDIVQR

With `CNc1ncc2cc(-c3ccc(-c4cccc(C)n4)cc3Cl)c(=O)n(CC3OCC(N)CO3)c2n1` (centres unmarked) [compound 2, G-5555] the “dTm G-5555 (2)” value (OSR1; 10 µM, binder) was 0.2 °C, the “dTm G-5555 (2)” value (NDR2; 10 µM, binder) was 3.5 °C and the “dTm G-5555 (2)” value (ABL1; 10 µM, binder) was 5.1 °C. The “dTm G-5555 (2)” value (NEK1; 10 µM, binder) was -2.2 °C, the “dTm G-5555 (2)” value (EphB3; 10 µM, binder) was 1.7 °C and the “dTm G-5555 (2)” value (MELK; 10 µM, binder) was 8.4 °C. For the same molecule, the “dTm G-5555 (2)” value (CDKL1; 10 µM, binder) was -0.1 °C.

Molecule `CNc1ncc2cc(-c3ccccc3Cl)c(=O)n(CCCCN)c2n1` [compound 4, 8-(4-Aminobutyl)-6-(2-chlorophenyl)-2-(methylamino)pyrido[2,3-d]pyrimidin-7(8H)-one] has a ΔTm at 10 µM (OSR1; read-out: dTm MR21 (4)) of 1.3 °C, a ΔTm at 10 µM (NDR2; read-out: dTm MR21 (4)) of 0.5 °C and a ΔTm at 10 µM (ABL1; read-out: dTm MR21 (4)) of 9.2 °C. The ΔTm at 10 µM (TAF1; read-out: dTm MR21 (4)) was -0.1 °C, the ΔTm at 10 µM (NEK1; read-out: dTm MR21 (4)) was 0.1 °C and the ΔTm at 10 µM (EphB3; read-out: dTm MR21 (4)) was 6 °C. The ΔTm at 10 µM (MELK; read-out: dTm MR21 (4)) was 5.7 °C and the ΔTm at 10 µM (CDKL1; read-out: dTm MR21 (4)) was 0.5 °C.

`CNc1ncc2cc(-c3cc(F)ccc3F)c(=O)n(CCCCN)c2n1` [compound 5, 8-(4-Aminobutyl)-6-(2,5-difluorophenyl)-2-(methylamino)pyrido[2,3-d]pyrimidin-7(8H)-one] showed a ΔTm at 10 µM (OSR1; read-out: dTm MR22 (5)) of -0.8 °C, a ΔTm at 10 µM (NDR2; read-out: dTm MR22 (5)) of 1.6 °C and a ΔTm at 10 µM (ABL1; read-out: dTm MR22 (5)) of 6.9 °C. The ΔTm at 10 µM (TAF1; read-out: dTm MR22 (5)) was 0.2 °C, the ΔTm at 10 µM (NEK1; read-out: dTm MR22 (5)) was 0 °C and the ΔTm at 10 µM (EphB3; read-out: dTm MR22 (5)) was 3.3 °C. The ΔTm at 10 µM (MELK; read-out: dTm MR22 (5)) was 3.2 °C and the ΔTm at 10 µM (CDKL1; read-out: dTm MR22 (5)) was 0.5 °C.

Molecule `CNc1ncc2cc(-c3cc(Br)ccc3Cl)c(=O)n(CCCCN)c2n1` [compound 6, 8-(4-Aminobutyl)-6-(5-bromo-2-chlorophenyl)-2-(methylamino)pyrido[2,3-d]pyrimidin-7(8H)-one] has a ΔTm at 10 µM (OSR1; read-out: dTm 6) of 0.3 °C, a ΔTm at 10 µM (NDR2; read-out: dTm 6) of 0.7 °C and a ΔTm at 10 µM (ABL1; read-out: dTm 6) of 4.5 °C. It also gave a ΔTm at 10 µM (TAF1; read-out: dTm 6) of -0.6 °C, a ΔTm at 10 µM (NEK1; read-out: dTm 6) of -0.3 °C and a ΔTm at 10 µM (EphB3; read-out: dTm 6) of 3.5 °C. For the same molecule, the ΔTm at 10 µM (CDKL1; read-out: dTm 6) was 0 °C.

Molecule `CNc1ncc2cc(-c3cc(Br)ccc3Cl)c(=O)n(C[C@H]3OC[C@H](N)CO3)c2n1` [compound 7, 8-(((2r,5r)-5-Amino-1,3-dioxan-2-yl)methyl)-6-(5-bromo-2-chlorophenyl)-2-(methylamino)pyrido[2,3-d]pyrimidin-7(8H)-one] has a ΔTm at 10 µM (OSR1; read-out: dTm 7) of 0 °C, a ΔTm at 10 µM (NDR2; read-out: dTm 7) of -0.1 °C and a ΔTm at 10 µM (ABL1; read-out: dTm 7) of 4.1 °C. For the same molecule, the ΔTm at 10 µM (TAF1; read-out: dTm 7) was -0.8 °C, the ΔTm at 10 µM (NEK1; read-out: dTm 7) was 0.1 °C and the ΔTm at 10 µM (EphB3; read-out: dTm 7) was 2.5 °C. It also gave a ΔTm at 10 µM (MELK; read-out: dTm 7) of 3.6 °C and a ΔTm at 10 µM (CDKL1; read-out: dTm 7) of -0.1 °C.
